Patent publication US8030335B2, “Use of liver X receptor agonists” (Laboratoires Fournier S.A., priority 2005, dated 2011)

How the values were obtained:
Type in all cases: in vivo, rat
[1] = system: isolated pancreatic islets; experiment: Insulin content of pancreatic islets isolated from treated ZDF rats; conditions: 10 mg/kg oral for 3 weeks, vehicle 4.78±0.86, fa+ 27.74±6.85, mean±SEM
Protocol: Male ZDF fa/fa and ZDF fa+ rats were obtained from Genetic Models (Indianapolis, Ind.), at the age of 6 weeks and used in the experiments at 12 weeks of age, after 3 weeks of oral treatment with vehicle or GW3965 (10 mg/kg). Compounds were given once daily (at 17 h) via oral gavage. At the time of their use, the ZDF fa/fa rats weighed 310-350 g, whereas the age-matched ZDF fa+ rats weighed 245-285 g. ZDF fa+ and ZDF fa/fa animals had free access to diabetogenic chow (Purina 5008). Animals were housed 5 per cage in a temperature and humidity-controlled room with a 12/12-h light-dark cycle. Blood samples were taken 16 h after compound administration via the tail vein and measured on a Konelab 300 (Labsystem) clinical chemistry analyzer. Rat pancreatic islets were prepared by collagenase digestion and density gradient purification. The enzyme collagenase type XI (Sigma Chemical, St. Louis, Mo.) was used for digestion of the pancreas. After an overnight fast, animals were deeply anesthetized and killed. Then, the pancreatic duct was cannulated, and 20 ml of the digestion solution at 37° C. […] Insulin content was measured in the same islets after an overnight alcohol-acid extraction (Ethanol 75%+HCl 0.15 N). Insulin concentrations in the different media were determined by rat insulin ELISA test (Insulin Rat Elite plus, MERCODIA).

[2] = system: pancreatic islets; experiment: Number of harvested pancreatic islets in treated ZDF rats; conditions: 10 mg/kg oral for 3 weeks, vehicle 51±13, fa+ 120±28, mean±SEM
Protocol: Male ZDF fa/fa and ZDF fa+ rats were obtained from Genetic Models (Indianapolis, Ind.), at the age of 6 weeks and used in the experiments at 12 weeks of age, after 3 weeks of oral treatment with vehicle or GW3965 (10 mg/kg). Compounds were given once daily (at 17 h) via oral gavage. At the time of their use, the ZDF fa/fa rats weighed 310-350 g, whereas the age-matched ZDF fa+ rats weighed 245-285 g. ZDF fa+ and ZDF fa/fa animals had free access to diabetogenic chow (Purina 5008). Animals were housed 5 per cage in a temperature and humidity-controlled room with a 12/12-h light-dark cycle. Blood samples were taken 16 h after compound administration via the tail vein and measured on a Konelab 300 (Labsystem) clinical chemistry analyzer. Rat pancreatic islets were prepared by collagenase digestion and density gradient purification. The enzyme collagenase type XI (Sigma Chemical, St. Louis, Mo.) was used for digestion of the pancreas. After an overnight fast, animals were deeply anesthetized and killed. Then, the pancreatic duct was cannulated, and 20 ml of the digestion solution at 37° C. (collagenase 30 mg/ml dissolved in 20 ml Hanks' balanced salt solution [HBSS]) (Sigma Chemical, St. Louis, Mo.) was slowly injected to distend the tissue. […]

[3] = system: pancreatic sections; experiment: Apoptosis by TUNEL staining on pancreatic sections; conditions: 8 weeks-old ZDF rats, 10 mg/kg for 4 weeks, vehicle 4.55±1.29%, p<0.05
Protocol: Islet cell apoptosis was determined by transferase-mediated dUTP nick-end labeling (TUNEL) staining. Cell death was identified by 3′ in situ end labeling of fragmented DNA with biotinylated deoxyuridine-triphosphate. Each pancreatic piece was cut throughout its length into 5 μm thick sections, which were collected on gelatin-coated slides. Four sections at regular intervals were picked in both head and tail pieces. After digestion with Proteinase K (2 μg/ml; Sigma), sections were consecutively washed in TdT buffer (0.5 mol/l cacodylate [pH 6.8], 1 mmol/l cobalt chloride, 0.15 mol/l NaCl) and then incubated at 37° C. with TdT (25U; Boehringer-Mannheim, Mannheim, Germany) and biotinylated dUTP (1 nmol/μl). After washing in TB buffer (300 mmol/l NaCl, 30 mmol/l sodium citrate) to terminate the reaction, incorporation of biotinylated dUTP was detected by a modification of the avidin-biotin complex method. Horseradish peroxidise-conjugated streptavidin-biotin complex was applied (Vector Laboratories). The sections were then developed using DAB as chromogen and lightly counterstained with hematoxylin and mounted in dePex (BDH Laboratory, Poole, England).
Apoptosis have also been estimated using the TUNEL staining method on pancreatic sections of 5 animals of 8 weeks-old ZDF rats treated with GW3965 at 10 mg/kg for 4 weeks.

Structure (SMILES): O=C(O)Cc1cccc(OCCCN(Cc2cccc(C(F)(F)F)c2Cl)CC(c2ccccc2)c2ccccc2)c1 [GW3965]
- insulin content of islets [1]: 13.05±2.49 ng/islet
- number of harvested pancreatic islets [2]: 80±16 islets/rat
- % of apoptosis by TUNEL staining [3]: 1.41±0.96%
